{
  "source": "paper PMC4188576",
  "about": "(PLoS ONE, 2014)",
  "key": {"Na,K-ATPase α1 isoform [1]": {"molecular_target": "T1, Na,K-ATPase α1 isoform (Mus musculus, UniProt Q8VDN2)", "T1 construct": "gene Atp1a1; native mouse kidney membrane preparation, primarily α1 isoform", "test": "Na,K-ATPase activity of mouse kidney membranes, dose-response", "type": "biochemical"}, "Na,K-ATPase α1 isoform [2]": {"molecular_target": "T2, Na,K-ATPase α1 isoform (Homo sapiens, UniProt P05023)", "T2 construct": "gene ATP1A1; endogenous enzyme on HeLa cell monolayers", "test": "competition of 3H-ouabain radioligand binding on HeLa cells"}, "Pdr5p": {"molecular_target": "T3, Pdr5p (Saccharomyces cerevisiae, UniProt P33302)", "T3 construct": "gene PDR5; plasma membranes containing the overexpressed Pdr5p (strain AD124567)", "T3 sequence (P33302 whole entry)": "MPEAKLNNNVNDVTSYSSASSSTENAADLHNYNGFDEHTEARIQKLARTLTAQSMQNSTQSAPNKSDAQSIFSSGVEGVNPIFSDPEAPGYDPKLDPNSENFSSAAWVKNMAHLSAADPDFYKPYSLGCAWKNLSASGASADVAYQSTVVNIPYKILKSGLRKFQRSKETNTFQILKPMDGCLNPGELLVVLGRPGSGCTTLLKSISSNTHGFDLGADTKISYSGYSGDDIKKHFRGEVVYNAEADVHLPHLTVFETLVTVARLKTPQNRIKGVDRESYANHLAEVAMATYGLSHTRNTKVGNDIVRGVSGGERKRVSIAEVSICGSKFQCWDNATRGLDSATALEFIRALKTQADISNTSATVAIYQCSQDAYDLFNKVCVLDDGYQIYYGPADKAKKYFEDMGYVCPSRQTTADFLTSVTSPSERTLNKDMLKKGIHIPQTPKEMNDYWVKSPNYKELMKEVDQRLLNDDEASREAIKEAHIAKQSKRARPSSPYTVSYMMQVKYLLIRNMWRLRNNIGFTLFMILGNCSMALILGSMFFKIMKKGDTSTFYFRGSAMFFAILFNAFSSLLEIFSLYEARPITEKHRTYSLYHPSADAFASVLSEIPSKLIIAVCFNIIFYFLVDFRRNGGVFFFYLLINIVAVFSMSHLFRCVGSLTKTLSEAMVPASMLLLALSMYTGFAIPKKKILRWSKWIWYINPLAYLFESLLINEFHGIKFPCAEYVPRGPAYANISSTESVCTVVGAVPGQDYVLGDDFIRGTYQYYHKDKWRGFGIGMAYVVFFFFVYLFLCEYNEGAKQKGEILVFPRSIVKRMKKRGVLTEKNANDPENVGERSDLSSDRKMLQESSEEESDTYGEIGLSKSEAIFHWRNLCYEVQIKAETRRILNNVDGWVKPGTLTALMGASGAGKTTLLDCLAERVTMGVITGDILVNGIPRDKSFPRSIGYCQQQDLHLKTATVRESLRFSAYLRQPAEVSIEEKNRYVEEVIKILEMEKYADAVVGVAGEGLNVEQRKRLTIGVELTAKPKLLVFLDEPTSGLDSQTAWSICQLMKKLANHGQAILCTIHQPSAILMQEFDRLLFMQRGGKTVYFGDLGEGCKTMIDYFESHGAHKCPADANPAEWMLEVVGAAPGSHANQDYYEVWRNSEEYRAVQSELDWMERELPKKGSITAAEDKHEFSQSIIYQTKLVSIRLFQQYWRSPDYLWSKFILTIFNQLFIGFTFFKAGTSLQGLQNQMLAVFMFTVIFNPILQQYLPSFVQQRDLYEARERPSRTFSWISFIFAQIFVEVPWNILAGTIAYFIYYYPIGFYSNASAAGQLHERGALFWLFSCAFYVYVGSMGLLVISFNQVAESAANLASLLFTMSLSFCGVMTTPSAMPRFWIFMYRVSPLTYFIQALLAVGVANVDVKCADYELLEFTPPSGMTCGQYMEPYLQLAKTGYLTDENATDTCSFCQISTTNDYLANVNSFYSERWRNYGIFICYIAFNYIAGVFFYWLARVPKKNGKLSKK", "test": "ATPase (Pi release) assay on Pdr5p-overexpressing plasma membranes, oligomycin-sensitive activity", "type": "biochemical"}},
  "data": [
    {"smiles": "C[C@H]1O[C@@H](O[C@H]2[C@@H](O)C[C@H](O[C@H]3[C@@H](O)C[C@H](O[C@H]4CC[C@@]5(C)[C@H](CC[C@@H]6[C@@H]5C[C@@H](O)[C@]5(C)[C@@H](C7=CC(=O)O/C7=C\\c7ccccc7)CC[C@]65O)C4)O[C@@H]3C)O[C@@H]2C)C[C@H](O)[C@@H]1O", "note": "[21-BD, 21-benzylidene digoxin]", "values": [
      {"measurement": "Na,K-ATPase activity of mouse kidney membranes, dose-response", "setting": "Na,K-ATPase α1 isoform [1]", "result": "Similarly, 21-BD inhibited the mouse kidney Na,K-ATPase with similar kinetics"},
      {"measurement": "competition of 3H-ouabain radioligand binding on HeLa cells", "setting": "Na,K-ATPase α1 isoform [2]", "result": "21-BD significantly competed with ouabain binding at concentrations in the µM range"},
      {"measurement": "IC50", "setting": "Pdr5p", "result": "1250 ± 360", "unit": "nM"}
    ]}
  ]
}
